Test results: article PMC11017246, “Discovery of GLPG2737, a Potent Type 2 Corrector of CFTR for the Treatment of Cystic Fibrosis in Combination with a Potentiator and a Type 1 Co-corrector” (Journal of Medicinal Chemistry, 2024)

Legend:
ΔF508 CFTR = molecular target: T1, ΔF508 CFTR (Homo sapiens, UniProt P13569, DEL508-508); assay: CSE-HRP: cell surface expression horseradish peroxidase assay in CFBE41o- cells; type: cell-based; conditions: no additional corrector; for Emax: CFBE41o-, relative to lumacaftor or 5 (3 μM) positive control, read-out: CSE-HRP % max activation; for EC50: 24 h incubation, 33 °C, geometric mean, read-out: CSE-HRP EC50
T1 construct: host or cells: CFBE41o- TetON cells, expression induced with doxycycline
Protocol: A CFBE41o– cell line stably expressing ΔF508 CFTR harboring an HRP-tag in the fourth extracellular loop was obtained from Professor Gergely Lukacs (Department of Physiology, McGill University, Montreal, QC, Canada).[25] Cells were grown in Eagle’s minimal essential medium (Life Technologies) supplemented with 10% FBS, 1% L-glutamine (Life Technologies), 10 mM HEPES (Life Technologies), 200 μg/mL Geneticin (Life Technologies), and 3 μg/mL puromycin (Sigma) in culture flasks coated with 0.01% bovine serum albumin (BSA) (Sigma), 30 μg/mL Purecol (Nutacon), and 0.001% human fibronectin (Sigma).
CFBE41o– TetON cells expressing HRP tagged ΔF508-CFTR were seeded in white 384-well plates (Greiner) at a density of 2000 cells per well. Medium containing 500 ng/mL doxycycline was used to induce expression of ΔF508-CFTR-HRP. After 3 days, cells were treated with corrector or potentiator compounds and transferred to an incubator at 33 °C. On day 4, cells were washed five times with PBS containing Ca^2+ and Mg^2+ using a Bio-Tek plate washer and incubated with a chemiluminescent HRP substrate (SuperSignal West Pico Chemiluminescent Substrate, Thermo Scientific) for 15 min. Chemiluminescence was measured using an Envision plate reader (PerkinElmer). Dose response data was fitted using a 4 parameter hill function of the form Response = neg control + (pos control – neg control)/(1 + 10^(log EC50-concentration)/HillSlope) to determine EC50 values. Percentage efficacy was calculated using the following formula: (max response – neg control)/(C1 response – neg control).

[1] = Hepatocyte stability, rat; type: in vitro ADME; conditions: read-out: Hep CLint,u rat (converted)
Protocol: (§1) The hepatocyte stability assay was performed by incubation of test compound at 1 μM, 0.03% DMSO in modified Krebs–Henseleit buffer with suspension of pooled cryopreserved hepatocytes (BioIVT, Hicksville, NY, USA) from mouse, rat, dog, or human (BioIVT, Hicksville, NY, USA) at 0.5 million viable hepatocytes/mL. Before adding the hepatocytes (time zero) and after 10, 20, 45, 90, 120, and 180 min of incubation (n = 2) at 37 °C while gently shaking, the reaction was stopped and proteins were precipitated with an excess of acetonitrile containing an internal standard. The samples were mixed, centrifuged, and filtered, and the supernatant was analyzed by liquid chromatography–mass spectrometry/mass spectrometry (LC–MS/MS). The instrument responses (peak areas/IS peak areas) were referenced to the zero-time point samples (considered as 100%) in order to determine the percentage of compound remaining.

[2] = Liver microsomal stability, human; type: in vitro ADME; conditions: liver microsomes; human microsomes; calculated from measured fumic; read-out: Mic CLint,u human (converted)
Protocol: (§2) The microsomal stability assay was performed by incubation of test compound at 1 μM, 0.2% DMSO in phosphate buffer with microsomes (0.5 mg/mL) from mouse, rat, dog, or human (Xeno-Tech, Kansas City, KS, USA), and cofactors with final concentrations of 0.6 U/mL glucose-6- phosphate dehydrogenase, 3.3 mM MgCl2, 3.3 mM glucose-6-phosphate, and 1.3 mM nicotinamide adenine dinucleotide phosphate (NADP)+. Before addition of the microsomes (time zero) and after 30 min of incubation at 37 °C with shaking, the reaction was stopped, and proteins were precipitated with an excess of acetonitrile containing an internal standard. The samples were mixed, centrifuged, and filtered, and the supernatant was analyzed by liquid chromatography–mass spectrometry/mass spectrometry (LC–MS/MS). The instrument responses (peak areas/IS peak areas) were referenced to the zero-time point samples (considered as 100%) to determine the percentage of compound remaining. In vitro unbound intrinsic clearance (CLint,u) was calculated from the half-life using the following equations: [drawing 1] [drawing 2] To take into account nonspecific binding, scaled CLint values were corrected with the fraction unbound in microsomes (fu, mic). [drawing 3]
(§3) Equilibrium dialysis is a technique used to measure microsomal binding. Briefly, the assay was performed in a 96-well Teflon dialysis unit (Dialysis Device), where each well consists of two chambers separated by a dialysis membrane (membrane strips, MW cutoff 12–14 kDa, HTDialysis). Inactivated liver microsomes (pooled human liver microsomes, Xenotech, protein concentration of 0.5 mg/mL) spiked with a compound (1 μM final concentration, 0.5% DMSO) were added to one chamber and buffer solution (50 mM PBS Buffer) was added to the other side of the well. Each compound was analyzed in duplicate for 4 h at 37 °C. At the end of incubation, both chambers were sampled and analyzed by LC-MS/MS. The unbound microsomal fraction (fu, mic) was calculated as the concentration in buffer divided by the total concentration in the microsomal side. Positive controls included in this assay are terfenadine and verapamil.

[3] = Liver microsomal stability, rat; type: in vitro ADME; conditions: liver microsomes; rat microsomes; calculated from measured fumic; read-out: Mic CLint,u rat (converted)
Protocol: as §2, §3

[4] = Hepatocyte stability, human; type: in vitro ADME; conditions: human hepatocytes; read-out: Hep CLint,u human
Protocol: as §1

[5] = pooled cryopreserved hepatocytes in suspension

T1 sequence (P13569 with tags, fused parts or gaps DEL508-508): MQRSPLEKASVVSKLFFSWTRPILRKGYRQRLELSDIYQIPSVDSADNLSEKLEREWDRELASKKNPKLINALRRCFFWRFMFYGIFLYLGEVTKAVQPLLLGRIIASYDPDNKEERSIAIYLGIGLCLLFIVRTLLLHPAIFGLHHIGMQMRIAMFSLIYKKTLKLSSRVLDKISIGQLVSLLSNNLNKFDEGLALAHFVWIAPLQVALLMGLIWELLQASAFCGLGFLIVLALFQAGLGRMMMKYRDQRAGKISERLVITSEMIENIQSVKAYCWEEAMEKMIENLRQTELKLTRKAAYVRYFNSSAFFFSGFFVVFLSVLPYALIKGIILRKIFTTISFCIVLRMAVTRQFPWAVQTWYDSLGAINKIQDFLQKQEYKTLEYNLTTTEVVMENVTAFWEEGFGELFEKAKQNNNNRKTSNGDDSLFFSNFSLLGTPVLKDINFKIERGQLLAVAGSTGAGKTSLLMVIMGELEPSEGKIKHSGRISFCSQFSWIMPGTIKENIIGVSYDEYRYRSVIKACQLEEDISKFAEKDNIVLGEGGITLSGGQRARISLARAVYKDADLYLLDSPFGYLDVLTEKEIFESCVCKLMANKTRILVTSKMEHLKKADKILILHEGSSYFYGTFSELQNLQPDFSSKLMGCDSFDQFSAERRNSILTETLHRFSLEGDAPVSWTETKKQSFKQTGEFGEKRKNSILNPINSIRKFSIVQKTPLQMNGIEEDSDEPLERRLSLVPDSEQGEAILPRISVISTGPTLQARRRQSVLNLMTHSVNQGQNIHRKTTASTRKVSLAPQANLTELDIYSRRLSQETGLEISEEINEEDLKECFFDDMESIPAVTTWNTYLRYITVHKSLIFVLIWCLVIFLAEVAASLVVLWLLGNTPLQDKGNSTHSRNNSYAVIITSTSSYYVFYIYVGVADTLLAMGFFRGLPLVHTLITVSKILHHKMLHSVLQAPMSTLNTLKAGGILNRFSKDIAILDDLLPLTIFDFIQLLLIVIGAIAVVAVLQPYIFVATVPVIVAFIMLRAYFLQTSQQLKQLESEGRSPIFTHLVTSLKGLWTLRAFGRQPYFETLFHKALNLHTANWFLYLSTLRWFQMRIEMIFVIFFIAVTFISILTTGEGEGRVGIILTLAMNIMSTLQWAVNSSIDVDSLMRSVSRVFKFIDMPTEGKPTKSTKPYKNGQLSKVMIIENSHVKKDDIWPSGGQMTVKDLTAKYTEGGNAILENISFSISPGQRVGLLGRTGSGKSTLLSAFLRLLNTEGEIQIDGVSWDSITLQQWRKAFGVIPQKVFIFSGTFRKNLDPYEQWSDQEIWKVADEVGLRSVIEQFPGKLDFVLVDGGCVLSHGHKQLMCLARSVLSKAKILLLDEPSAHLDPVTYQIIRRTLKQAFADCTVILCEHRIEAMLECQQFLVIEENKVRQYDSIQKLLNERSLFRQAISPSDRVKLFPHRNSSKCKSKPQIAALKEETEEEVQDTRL

Emax (ΔF508 CFTR) [%] | EC50 (ΔF508 CFTR) [µM] | CLint scaled at 1 μM [1, 5] [mL/min/kg] | CLint scaled at 1 μM [2] [mL/min/kg] | CLint scaled at 1 μM [3] [mL/min/kg] | CLint scaled at 1 μM [4] [mL/min/kg] | CLint scaled at 1 μM ([1]; rat hepatocytes) [mL/min/kg] | Compound
64 | 4.13 | 263 | < 59.8 | 182 | – | – | COc1ccc(-c2cc(C(=O)O)nc3c2c(C)nn3-c2ccc(C)cc2)cc1 [Compound 6]
95 | 2.48 | 305 | 173 | 180 | – | – | COc1ccc(-c2cc(C(=O)O)nc3c2c(C)nn3-c2ccccc2)cc1 [Compound 7]
– | – | – | < 28.3 | < 43.3 | < 45.7 | 66.7 | Cc1nn(-c2ccccc2)c2nc(C(=O)O)cc(-c3ccc(N4CCOCC4)cc3)c12 [Compound 8]
